According to PubChem BioAssay AID1963958 (Molecular Pharmacology Branch, DTP, NCI, 2024):
Values belong to the compound of their own block, whether it stands above or below them.

System: MDA-MB-231 multicell spheroids, viability
Test: Anticancer human tumor MDA-MB-231 cell line growth inhibition [PI3K];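 also: spheroids exposed to agents for seven days before reading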;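 as to viability, T/C: percent of vehicle control luminescence with DMSO treated spheroids as 100%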
Details: for IC50: curve of first compound; for viability, T/C: stronger effect = lower value
Outline: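 Agents were dosed from a top concentration near clinical Cmax (otherwise 10 microM) in half-log decrements, alone or combined with PI3K inhibitors. The spheroids contain tumor cells plus endothelial (HUVEC) and MSC stroma; viability is measured.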

[1] = second compound 0.0316 µM, first compound 0.0316 µM
[2] = second compound 0.0316 µM, first compound 0.1 µM
[3] = second compound 0.0316 µM, first compound 0.316 µM
[4] = second compound 0.0316 µM, first compound 1 µM
[5] = second compound 0.1 µM, first compound 0.0316 µM
[6] = second compound 0.1 µM, first compound 0.1 µM
[7] = second compound 0.1 µM, first compound 0.316 µM
[8] = second compound 0.1 µM, first compound 1 µM
[9] = second compound 0.316 µM, first compound 0.0316 µM
[10] = second compound 0.316 µM, first compound 0.1 µM
[11] = second compound 0.316 µM, first compound 0.316 µM
[12] = second compound 0.316 µM, first compound 1 µM
[13] = second compound 1 µM, first compound 0.0316 µM
[14] = second compound 1 µM, first compound 0.1 µM
[15] = second compound 1 µM, first compound 0.316 µM
[16] = second compound 1 µM, first compound 1 µM
[17] = second compound 3.16 µM, first compound 0.0316 µM
[18] = second compound 3.16 µM, first compound 0.1 µM
[19] = second compound 3.16 µM, first compound 0.316 µM
[20] = second compound 3.16 µM, first compound 1 µM
[21] = second compound 10 µM, first compound 0.0316 µM
[22] = second compound 10 µM, first compound 0.1 µM
[23] = second compound 10 µM, first compound 0.316 µM
[24] = second compound 10 µM, first compound 1 µM
[25] = second compound 0.0316 µM, first compound 0.000316 µM
[26] = second compound 0.0316 µM, first compound 0.001 µM
[27] = second compound 0.0316 µM, first compound 0.00316 µM
[28] = second compound 0.0316 µM, first compound 0.01 µM
[29] = second compound 0.1 µM, first compound 0.000316 µM
[30] = second compound 0.1 µM, first compound 0.001 µM
[31] = second compound 0.1 µM, first compound 0.00316 µM
[32] = second compound 0.1 µM, first compound 0.01 µM
[33] = second compound 0.316 µM, first compound 0.000316 µM
[34] = second compound 0.316 µM, first compound 0.001 µM
[35] = second compound 0.316 µM, first compound 0.00316 µM
[36] = second compound 0.316 µM, first compound 0.01 µM
[37] = second compound 1 µM, first compound 0.000316 µM
[38] = second compound 1 µM, first compound 0.001 µM
[39] = second compound 1 µM, first compound 0.00316 µM
[40] = second compound 1 µM, first compound 0.01 µM
[41] = second compound 3.16 µM, first compound 0.00316 µM
[42] = second compound 3.16 µM, first compound 0.01 µM
[43] = second compound 10 µM, first compound 0.00316 µM
[44] = second compound 10 µM, first compound 0.01 µM

IC50 (second compound 0.0316 µM): 6180 nM | IC50 (second compound 0.1 µM): 5980 nM | IC50 (second compound 0.316 µM): 5800 nM | IC50 (second compound 1 µM): 4920 nM | IC50 (second compound 3.16 µM): 4360 nM | IC50 (second compound 10 µM): 4290 nM
Compound: CC1(C)CCC(CN2CCN(c3ccc(C(=O)NS(=O)(=O)c4ccc(NCC5CCOCC5)c([N+](=O)[O-])c4)c(Oc4cnc5[nH]ccc5c4)c3)CC2)=C(c2ccc(Cl)cc2)C1 + Cc1nc(NC(=O)N2CCCC2C(N)=O)sc1-c1ccnc(C(C)(C)C(F)(F)F)c1
viability, T/C [1]: 93.7% | viability, T/C [2]: 101% | viability, T/C [3]: 96% | viability, T/C [4]: 101% | viability, T/C (second compound 0.0316 µM, first compound 3.16 µM): 107% | viability, T/C (second compound 0.0316 µM, first compound 10 µM): 14.4% | viability, T/C [5]: 89.2% | viability, T/C [6]: 90.3% | viability, T/C [7]: 87.7% | viability, T/C [8]: 90.8% | viability, T/C (second compound 0.1 µM, first compound 3.16 µM): 97% | viability, T/C (second compound 0.1 µM, first compound 10 µM): 16.8% | viability, T/C [9]: 77.9% | viability, T/C [10]: 79.6% | viability, T/C [11]: 79.2% | viability, T/C [12]: 79.6% | viability, T/C (second compound 0.316 µM, first compound 3.16 µM): 83.5% | viability, T/C (second compound 0.316 µM, first compound 10 µM): 22.9% | viability, T/C [13]: 72.5% | viability, T/C [14]: 73.4% | viability, T/C [15]: 71.7% | viability, T/C [16]: 73.4% | viability, T/C (second compound 1 µM, first compound 3.16 µM): 74% | viability, T/C (second compound 1 µM, first compound 10 µM): 13.1% | viability, T/C [17]: 69.8% | viability, T/C [18]: 65.9% | viability, T/C [19]: 67.7% | viability, T/C [20]: 72.7% | viability, T/C (second compound 3.16 µM, first compound 3.16 µM): 66% | viability, T/C (second compound 3.16 µM, first compound 10 µM): 8.11% | viability, T/C [21]: 65.8% | viability, T/C [22]: 67.4% | viability, T/C [23]: 58.5% | viability, T/C [24]: 63.1% | viability, T/C (second compound 10 µM, first compound 3.16 µM): 62% | viability, T/C (second compound 10 µM, first compound 10 µM): 16.7%

IC50 (second compound 0.0316 µM): 64.4 nM | IC50 (second compound 0.1 µM): 65.5 nM | IC50 (second compound 0.316 µM): 51.9 nM | IC50 (second compound 1 µM): 32.7 nM | IC50 (second compound 3.16 µM): 12.5 nM | IC50 (second compound 10 µM): < 0.316 nM
Compound: CC(C)n1nc(-c2ccc3oc(N)nc3c2)c2c(N)ncnc21 + CC(Nc1ncnc2nc[nH]c12)c1cc2cccc(Cl)c2c(=O)n1-c1ccccc1
viability, T/C [25]: 94.1% | viability, T/C [26]: 101% | viability, T/C [27]: 93.1% | viability, T/C [28]: 85.6% | viability, T/C [1]: 65.5% | viability, T/C [2]: 40.5% | viability, T/C [29]: 101% | viability, T/C [30]: 100% | viability, T/C [31]: 91.9% | viability, T/C [32]: 79.7% | viability, T/C [5]: 66.2% | viability, T/C [6]: 41% | viability, T/C [33]: 91.7% | viability, T/C [34]: 90.2% | viability, T/C [35]: 87.2% | viability, T/C [36]: 72.8% | viability, T/C [9]: 58.8% | viability, T/C [10]: 39.4% | viability, T/C [37]: 80.5% | viability, T/C [38]: 78% | viability, T/C [39]: 76.1% | viability, T/C [40]: 68.5% | viability, T/C [13]: 50% | viability, T/C [14]: 39.2% | viability, T/C (second compound 3.16 µM, first compound 0.000316 µM): 62.1% | viability, T/C (second compound 3.16 µM, first compound 0.001 µM): 64.9% | viability, T/C [41]: 57.8% | viability, T/C [42]: 50.8% | viability, T/C [17]: 43.4% | viability, T/C [18]: 31.8% | viability, T/C (second compound 10 µM, first compound 0.000316 µM): 49.2% | viability, T/C (second compound 10 µM, first compound 0.001 µM): 44.6% | viability, T/C [43]: 42.4% | viability, T/C [44]: 35.9% | viability, T/C [21]: 30.1% | viability, T/C [22]: 24.2%

IC50 (second compound 0.0316 µM): 261 nM | IC50 (second compound 0.1 µM): 89.3 nM | IC50 (second compound 0.316 µM): 30.9 nM | IC50 (second compound 1 µM): 20.2 nM | IC50 (second compound 3.16 µM): 23.6 nM | IC50 (second compound 10 µM): 13.7 nM
Compound: CCN1CCN(Cc2ccc(Nc3ncc(F)c(-c4cc(F)c5nc(C)n(C(C)C)c5c4)n3)nc2)CC1 + Cc1nc(NC(=O)N2CCCC2C(N)=O)sc1-c1ccnc(C(C)(C)C(F)(F)F)c1
viability, T/C [27]: 90.9% | viability, T/C [28]: 75.5% | viability, T/C [1]: 66.3% | viability, T/C [2]: 54.2% | viability, T/C [3]: 45.3% | viability, T/C [4]: 49.6% | viability, T/C [31]: 82.4% | viability, T/C [32]: 74.1% | viability, T/C [5]: 59.8% | viability, T/C [6]: 50.5% | viability, T/C [7]: 40.8% | viability, T/C [8]: 46.4% | viability, T/C [35]: 72.3% | viability, T/C [36]: 66.7% | viability, T/C [9]: 50.3% | viability, T/C [10]: 40.9% | viability, T/C [11]: 41.3% | viability, T/C [12]: 47.9% | viability, T/C [39]: 65.8% | viability, T/C [40]: 57.3% | viability, T/C [13]: 45.8% | viability, T/C [14]: 40.2% | viability, T/C [15]: 40% | viability, T/C [16]: 47.7% | viability, T/C [41]: 66.2% | viability, T/C [42]: 58.6% | viability, T/C [17]: 47.7% | viability, T/C [18]: 41.6% | viability, T/C [19]: 37.6% | viability, T/C [20]: 48.4% | viability, T/C [43]: 66.2% | viability, T/C [44]: 53.2% | viability, T/C [21]: 44.4% | viability, T/C [22]: 42% | viability, T/C [23]: 39.4% | viability, T/C [24]: 47.5%

IC50 (second compound 0.00316 µM): > 100 nM | IC50 (second compound 0.01 µM): > 100 nM | IC50 (second compound 0.0316 µM): > 100 nM | IC50 (second compound 0.1 µM): 74 nM | IC50 (second compound 0.316 µM): 47.1 nM | IC50 (second compound 1 µM): 17.6 nM
Compound: Cn1ncnc1[C@H]1c2n[nH]c(=O)c3cc(F)cc(c23)N[C@@H]1c1ccc(F)cc1 + CC(Nc1ccc2c(c1)OCCn1cc(N3C(=O)OCC3C(F)F)nc1-2)C(N)=O
viability, T/C (second compound 0.00316 µM, first compound 0.000316 µM): 99.1% | viability, T/C (second compound 0.00316 µM, first compound 0.001 µM): 93.9% | viability, T/C (second compound 0.00316 µM, first compound 0.00316 µM): 97.8% | viability, T/C (second compound 0.00316 µM, first compound 0.01 µM): 87.8% | viability, T/C (second compound 0.00316 µM, first compound 0.0316 µM): 82.4% | viability, T/C (second compound 0.00316 µM, first compound 0.1 µM): 74.5% | viability, T/C (second compound 0.01 µM, first compound 0.000316 µM): 90.7% | viability, T/C (second compound 0.01 µM, first compound 0.001 µM): 95% | viability, T/C (second compound 0.01 µM, first compound 0.00316 µM): 81.8% | viability, T/C (second compound 0.01 µM, first compound 0.01 µM): 84.4% | viability, T/C (second compound 0.01 µM, first compound 0.0316 µM): 78.2% | viability, T/C (second compound 0.01 µM, first compound 0.1 µM): 78.3% | viability, T/C [25]: 78.1% | viability, T/C [26]: 86.7% | viability, T/C [27]: 75.4% | viability, T/C [28]: 73.5% | viability, T/C [1]: 63.7% | viability, T/C [2]: 58.9% | viability, T/C [29]: 70.8% | viability, T/C [30]: 69.7% | viability, T/C [31]: 65% | viability, T/C [32]: 62.4% | viability, T/C [5]: 50.5% | viability, T/C [6]: 50.1% | viability, T/C [33]: 62.7% | viability, T/C [34]: 64.3% | viability, T/C [35]: 59.4% | viability, T/C [36]: 56.9% | viability, T/C [9]: 49.4% | viability, T/C [10]: 47.7% | viability, T/C [37]: 63.2% | viability, T/C [38]: 58% | viability, T/C [39]: 53.9% | viability, T/C [40]: 51.6% | viability, T/C [13]: 50% | viability, T/C [14]: 45.4%
